Values after ≈ are worked out from the molar mass of the structure shown. Where two headings read alike, the source gives them in different places.

Assay type in all cases: cell-based
For assay [1], the system named is Bacillus anthracis strain Sterne. Nature of the assay: microbe, parasite or virus in culture.
Assay [2] concerns Bacillus subtilis strain 168. The experiment in a line: Antibiotic activity, microbroth dilution MIC.
In assay [3] the test system is Enterococcus faecalis U503 (vancomycin-resistant). The experiment in a line: Antibiotic activity, microbroth dilution MIC. (Broth dilution looks for growth in wells or tubes with falling amounts of substance.)
In assay [4] the test system is Listeria monocytogenes strain 4b F2365. Nature of the assay: Antibiotic activity, microbroth dilution MIC.
Assay [5] concerns Staphylococcus aureus USA300 (methicillin-resistant). Nature of the assay: Antibiotic activity, microbroth dilution MIC.
For a further assay, the system named is E. coli MC4100. The experiment in a line: Antibiotic activity, microbroth dilution MIC. The following applies: 37° C. 12 h.
Assay [6] has as its system Neisseria sicca ATCC 29256. Nature of the assay: Antibiotic activity, microbroth dilution MIC.
For assay [7], the system named is Pseudomonas putida KT2440. The experiment in a line: Antibiotic activity, microbroth dilution MIC.
Another assay has as its system Aspergillus niger. Nature of the assay: Antifungal activity, microbroth dilution MIC.
A further assay has as its system Fusarium virguliforme. The experiment in a line: Antifungal activity, microbroth dilution MIC.
Another assay deals with Saccharomyces cerevisiae. The experiment in a line: Antifungal activity, microbroth dilution MIC.
The subject of the next assay is Talaromyces stipitatus. Nature of the assay: Antifungal activity, microbroth dilution MIC.
For assay [8], the system named is Gram-positive (Firmicutes) bacteria. The following applies: several Gram-positive bacteria, result in words.
The test system of assay [9] is Gram-negative (Proteobacteria) organisms. The following applies: all tested Gram-negatives, result in words.
The test system of another assay is fungal strains. Nature of the assay: Growth inhibition, panel of fungal strains. The following applies: result in words.
[10] abbreviates: microbroth dilution, 37° C. 12 h.
Setting [11] is: microbroth dilution, 30° C. 36 h.

As for `C=C1NC(=O)CNC(=O)[C@H](CCCCN)NC(=O)[C@@]2(C)NC(=O)/C(=C/C)NC(=O)[C@@H]3CSC(=N3)[C@H](CC(N)=O)NC(=O)c3ccc(nc3[C@@H](C)NC(=O)[C@@H]3CCCN3C1=O)-c1nc(cs1)C1=N[C@@H](CS1)C(=O)NC(=C)c1nc(cs1)-c1nc(cs1)C1=N[C@H](CS1)C(=O)N[C@H](C(=O)O)CS2` [cyclothiazomycin C], the MIC in assay [1] (12 h) was 1 µg/mL (≈ 0.673 µM); in assay [2] (168, 37° C. 12 h, read-out: MIC), 4 µg/mL (≈ 2.69 µM); in assay [3] (12 h) it was 32 to 64 µg/mL (≈ 21.5 to 43 µM); in assay [4] (4BF2365, 37° C. 12 h, read-out: MIC), 16 µg/mL (≈ 10.8 µM); in assay [5] (USA300, 12 h), 16 µg/mL (≈ 10.8 µM); with E. coli MC4100 (MC4100, Escherichia coli, read-out: MIC), over 64 µg/mL. The MIC is over 64 µg/mL in assay [6] (ATCC29256, 37° C. 12 h, read-out: MIC); over 64 µg/mL in assay [7] (KT2440, 37° C. 12 h, read-out: MIC); over 64 µg/mL against Aspergillus niger (36 h); over 64 µg/mL against Fusarium virguliforme (60 h); over 64 µg/mL in the assay with Saccharomyces cerevisiae (36 h); over 64 µg/mL in the assay with Talaromyces stipitatus (36 h). Besides, the “growth inhibitory action toward Gram-positive (Firmicutes) bacteria” value in assay [8] is “exhibited growth inhibitory action”. The “activity against Gram-negative (Proteobacteria) organisms” value in assay [9] was “inactive”. Moreover, the “growth inhibitory action toward fungal strains” value in the assay with fungal strains was “none was observed”.

As to cyclothiazomycin B [reference compound], the MIC in assay [1] (setting [10]) came to 1 µg/mL; in assay [2] (37° C. 12 h), 2 µg/mL; in assay [3] (setting [10]), 32 µg/mL; in assay [4] (37° C. 12 h) it was 8 µg/mL; in assay [5] (setting [10]) it was 4 µg/mL; against E. coli MC4100 (Escherichia coli), 64 µg/mL. Also, the MIC was over 64 µg/mL in [6] (37° C. 12 h); over 64 µg/mL in assay [7] (37° C. 12 h); over 64 µg/mL against Aspergillus niger (setting [11]); 64 µg/mL against Fusarium virguliforme (microbroth dilution, 30° C. 60 h); 64 µg/mL in the assay with Saccharomyces cerevisiae (setting [11]); 64 µg/mL in the assay on Talaromyces stipitatus (setting [11]). Further, the “activity against Gram-negative (Proteobacteria) organisms” value in assay [9] was “little to no activity”. In the assay with fungal strains, the “growth inhibitory action toward fungal strains” value is given as “little to no activity”.

Source of the values: patent US20170227545A1, “REACTIVITY-BASED SCREENING FOR NATURAL PRODUCT DISCOVERY” (THE BOARD OF TRUSTEES OF THE UNIVERSITY OF ILLINOIS, priority 2014, published 2017).
